# Measured values: patent US10526347B2, “3-(3H-imidazo[4,5-B]pyridin-2-yl)-1H-pyrazolo[3,4-B]pyridine and therapeutic uses thereof” (Samumed, LLC, priority 2014, dated 2020)
# Test system: Wnt activity (SW480 colon carcinoma cells stably expressing the Sp5-Luc reporter gene)
# Experiment: Sp5-Luc reporter gene screening assay for Wnt activity
# Assay type: cell-based
# Conditions: Homo sapiens
# Text: The screening assay for Wnt activity is described as follows. Reporter cell lines can be generated by stably transducing cancer cell lines (e.g., colon cancer) or primary cells (e.g., IEC-6 intestinal cells) with a lentiviral construct that includes a Wnt-responsive promoter driving expression of the firefly luciferase gene.
# SW480 colon carcinoma cells were transduced with a lentiviral vector expressing luciferase with a human Sp5 promoter consisting of a sequence of eight TCF/LEF binding sites. SW480 cells stably expressing the Sp5-Luc reporter gene and a hygromycin resistance gene were selected by treatment with 150 μg/ml of hygromycin for 7 days. These stably transduced SW480 cells were expanded in cell culture and used for all further screening activities. For Sp5-Luc reporter gene assays, the cells were plated at 10,000 cells/well in 96-well plates with growth medium containing 10% fetal calf serum and incubated overnight at 37° C. and 5% CO2. Each compound was dissolved in DMSO as a 10 mM stock in standard j-vials and used to prepare compound source plates in dose-response format with 3-fold serial dilutions and a 10 mM top concentration. Compound transfer from serially diluted source plates to assay plates containing the cells was accomplished using a pintool (Multimek 96, Beckman equipped with V&P Scientific FP1S50H pins) based liquid handling protocol. This protocol used a slotted pin to transfer 50 nl of compound from a source plate well to an assay plate well containing 50 μl of cells in growth medium. […] Control wells received 50 nl of DMSO treatment for normalization and calculating IC50 values. The treated cells were incubated at 37° C. and 5% CO2 for an additional forty-two hours. Following incubation, the growth medium was removed and 50 μl of BrightGlo luminescence reagent (Promega) was added to each well of the 96-well assay plates. The plates were placed on an orbital shaker for 5 min and then luminescence was quantified on the Victor3 (Perkin Elmer) plate reader. Readings were normalized to DMSO only treated cells, and normalized activities were utilized for IC50 calculations using the dose-response log (inhibitor) vs. response -variable slope (four parameters) nonlinear regression feature available in GraphPad Prism 5.0 or 6.0.
row,Structure (SMILES),IC50
1,"NC1CN(c2cncc(-c3cnc4[nH]nc(-c5nc6c(-c7cccc(F)c7)ccnc6[nH]5)c4c3)n2)C1 [Compound 914, 1-(6-(3-(7-(3-Fluorophenyl)-3H-imidazo[4,5-b]pyridin-2-yl)-1H-pyrazolo [3,4-b]pyridin-5-yl)pyrazin-2-yl)azetidin-3-amine]",1.02 µM
2,"CC(C)CC(=O)Nc1cncc(-c2cnc3[nH]nc(-c4nc5c(-c6cc(O)cc(F)c6)ccnc5[nH]4)c3c2)c1 [Compound 1322, N-(5-(3-(7-(3-Fluoro-5-hydroxyphenyl)-3H-imidazo[4,5-b]pyridin-2-yl)-1H-pyrazolo[3,4-b]pyridin-5-yl)pyridin-3-yl)-3-methylbutanamide]",0.395 µM
3,"Fc1cccc(-c2ccnc3[nH]c(-c4n[nH]c5ncc(-c6cncc(OCCN7CCCC7)c6)cc45)nc23)c1 [Compound 918, 3-(7-(3-Fluorophenyl)-3H-imidazo[4,5-b]pyridin-2-yl)-5-(5-(2-(pyrrolidin-1-yl)ethoxy)pyridin-3-yl)-1H-pyrazolo[3,4-b]pyridine]",> 10 µM
4,"CC(C)CC(=O)Nc1cncc(-c2cnc3[nH]nc(-c4nc5c(-c6cc(F)cc(OCCN(C)C)c6)ccnc5[nH]4)c3c2)c1 [Compound 1234, N-(5-(3-(7-(3-(2-(Dimethylamino)ethoxy)-5-fluorophenyl)-3H-imidazo[4,5-b]pyridin-2-yl)-1H-pyrazolo[3,4-b]pyridin-5-yl)pyridin-3-yl)-3-methylbutanamide]",1.13 µM
5,"O=C(CC1CCNCC1)Nc1cncc(-c2cnc3[nH]nc(-c4nc5c(-c6cccc(F)c6)ccnc5[nH]4)c3c2)c1 [Compound 917, N-(5-(3-(7-(3-Fluorophenyl)-3H-imidazo[4,5-b]pyridin-2-yl)-1H-pyrazolo [3,4-b]pyridin-5-yl)pyridin-3-yl)-2-(piperidin-4-yl)acetamide]",> 10 µM
6,"Fc1cccc(-c2ccnc3[nH]c(-c4n[nH]c5ncc(-c6cncc(OC7CCCCC7)c6)cc45)nc23)c1 [Compound 915, 5-(5-(Cyclohexyloxy)pyridin-3-yl)-3-(7-(3-fluorophenyl)-3H-imidazo[4,5-b]pyridin-2-yl)-1H-pyrazolo[3,4-b]pyridine]",> 10 µM
7,"Fc1ccc(-c2ccnc3[nH]c(-c4n[nH]c5ncc(-c6cncnc6)cc45)nc23)cc1 [Compound 44, 3-(7-(4-Fluorophenyl)-3H-imidazo[4,5-b]pyridin-2-yl)-5-(pyrimidin-5-yl)-1H-pyrazolo[3,4-b]pyridine]",0.377 µM
8,"CC(C)(C)CC(=O)Nc1cncc(-c2cnc3[nH]nc(-c4nc5cccnc5[nH]4)c3c2)c1 [Compound 222, N-(5-(3-(3H-Imidazo[4,5-b]pyridin-2-yl)-1H-pyrazolo[3,4-b]pyridin-5-yl)pyridin-3-yl)-3,3-dimethylbutanamide]",0.192 µM
9,"CCCCC(=O)Nc1cncc(-c2cnc3[nH]nc(-c4nc5c(-c6ccoc6)ccnc5[nH]4)c3c2)c1 [Compound 276, N-(5-(3-(7-(Furan-3-yl)-3H-imidazo[4,5-b]pyridin-2-yl)-1H-pyrazolo [3,4-b]pyridin-5-yl)pyridin-3-yl)pentanamide]",0.0081 µM
10,"CN1CCN(c2ccnc3[nH]c(-c4n[nH]c5ncc(-c6cncc(NC(=O)C7CCCC7)c6)cc45)nc23)CC1 [Compound 204, N-(5-(3-(7-(4-Methylpiperazin-1-yl)-3H-imidazo[4,5-b]pyridin-2-yl)-1H-pyrazolo[3,4-b]pyridin-5-yl)pyridin-3-yl)cyclopentanecarboxamide]",0.312 µM
11,"CN(C)c1cncc(-c2cnc3[nH]nc(-c4nc5c(-c6cccc(F)c6)ccnc5[nH]4)c3c2)c1 [Compound 5, 5-(3-(7-(3-Fluorophenyl)-3H-imidazo[4,5-b]pyridin-2-yl)-1H-pyrazolo [3,4-b]pyridin-5-yl)-N,N-dimethylpyridin-3-amine]",0.172 µM
12,"FC1(F)CCN(Cc2cncc(-c3cnc4[nH]nc(-c5nc6c(-c7cccs7)ccnc6[nH]5)c4c3)c2)C1 [Compound 309, 5-(5-((3,3-Difluoropyrrolidin-1-yl)methyl)pyridin-3-yl)-3-(7-(thiophen-2-yl)-3H-imidazo[4,5-b]pyridin-2-yl)-1H-pyrazolo[3,4-b]pyridine]",0.038 µM
13,"O=C(CC1CCCCC1)Nc1cncc(-c2cnc3[nH]nc(-c4nc5c(-c6cccc(F)c6)ccnc5[nH]4)c3c2)c1 [Compound 923, 2-Cyclohexyl-N-(5-(3-(7-(3-fluorophenyl)-3H-imidazo[4,5-b]pyridin-2-yl)-1H-pyrazolo[3,4-b]pyridin-5-yl)pyridin-3-yl)acetamide]",> 10 µM
14,"COc1cc(F)cc(-c2ccnc3[nH]c(-c4n[nH]c5ncc(-c6cncc(NC(=O)CC(C)C)c6)cc45)nc23)c1 [Compound 1366, N-(5-(3-(7-(3-Fluoro-5-methoxyphenyl)-3H-imidazo[4,5-b]pyridin-2-yl)-1H-pyrazolo[3,4-b]pyridin-5-yl)pyridin-3-yl)-3-methylbutanamide]",0.125 µM
15,"CC(C)(C)CC(=O)Nc1cncc(-c2cnc3[nH]nc(-c4nc5c(-c6ccccc6F)ccnc5[nH]4)c3c2)c1 [Compound 57, N-(5-(3-(7-(2-Fluorophenyl)-3H-imidazo[4,5-b]pyridin-2-yl)-1H-pyrazolo[3,4-b]pyridin-5-yl)pyridin-3-yl)-3,3-dimethylbutanamide]",0.118 µM
16,"Fc1cccc(-c2ccnc3[nH]c(-c4n[nH]c5ncc(-c6cncc(OCc7ccccc7)c6)cc45)nc23)c1 [Compound 922, 5-(5-(Benzyloxy)pyridin-3-yl)-3-(7-(3-fluorophenyl)-3H-imidazo[4,5-b]pyridin-2-yl)-1H-pyrazolo[3,4-b]pyridine]",> 10 µM
17,"CN1CCN(c2ccnc3[nH]c(-c4n[nH]c5ncc(-c6cncnc6)cc45)nc23)CC1 [Compound 209, 3-(7-(4-Methylpiperazin-1-yl)-3H-imidazo[4,5-b]pyridin-2-yl)-5-(pyrimidin-5-yl)-1H-pyrazolo[3,4-b]pyridine]",> 10 µM
18,"CC(C)CC(=O)Nc1cncc(-c2cnc3[nH]nc(-c4nc5c(-c6cc(F)cc(OCCN7CCCC7)c6)ccnc5[nH]4)c3c2)c1 [Compound 1278, N-(5-(3-(7-(3-Fluoro-5-(2-(pyrrolidin-1-yl)ethoxy)phenyl)-3H-imidazo[4,5-b]pyridin-2-yl)-1H-pyrazolo[3,4-b]pyridin-5-yl)pyridin-3-yl)-3-methylbutanamide]",0.89 µM
19,"CN(C)c1cncc(-c2cnc3[nH]nc(-c4nc5c(-c6cccs6)ccnc5[nH]4)c3c2)c1 [Compound 291, N,N-Dimethyl-5-(3-(7-(thiophen-2-yl)-3H-imidazo[4,5-b]pyridin-2-yl)-1H-pyrazolo[3,4-b]pyridin-5-yl)pyridin-3-amine]",0.0438 µM
20,"Fc1cccc(-c2ccnc3[nH]c(-c4n[nH]c5ncc(-c6cncc(CN7CCC(F)(F)C7)c6)cc45)nc23)c1 [Compound 21, 5-(5-((3,3-Difluoropyrrolidin-1-yl)methyl)pyridin-3-yl)-3-(7-(3-fluorophenyl)-3H-imidazo[4,5-b]pyridin-2-yl)-1H-pyrazolo[3,4-b]pyridine]",0.0358 µM
